pIC50, pKi: −log10 of the molar value. Where two headings read alike, the source gives them in different places. Residues, ends and D or L forms follow the SMILES beside them. *: point of attachment. Cbz = O=C(OCc1ccccc1)*
Columns and labels:
m-calpain = target: T1, m-calpain (Rattus norvegicus, UniProt Q07009); experiment: calpain inhibitory activity; type: biochemical; conditions: m-calpain extracted and purified from rat brain; read-out: calpain inhibitory activity IC₅₀
T1 construct: m-calpain which was extracted and purified from rat brain; from tissue; host or cells: rat brain
T1 sequence (Q07009 20-700 limits assumed): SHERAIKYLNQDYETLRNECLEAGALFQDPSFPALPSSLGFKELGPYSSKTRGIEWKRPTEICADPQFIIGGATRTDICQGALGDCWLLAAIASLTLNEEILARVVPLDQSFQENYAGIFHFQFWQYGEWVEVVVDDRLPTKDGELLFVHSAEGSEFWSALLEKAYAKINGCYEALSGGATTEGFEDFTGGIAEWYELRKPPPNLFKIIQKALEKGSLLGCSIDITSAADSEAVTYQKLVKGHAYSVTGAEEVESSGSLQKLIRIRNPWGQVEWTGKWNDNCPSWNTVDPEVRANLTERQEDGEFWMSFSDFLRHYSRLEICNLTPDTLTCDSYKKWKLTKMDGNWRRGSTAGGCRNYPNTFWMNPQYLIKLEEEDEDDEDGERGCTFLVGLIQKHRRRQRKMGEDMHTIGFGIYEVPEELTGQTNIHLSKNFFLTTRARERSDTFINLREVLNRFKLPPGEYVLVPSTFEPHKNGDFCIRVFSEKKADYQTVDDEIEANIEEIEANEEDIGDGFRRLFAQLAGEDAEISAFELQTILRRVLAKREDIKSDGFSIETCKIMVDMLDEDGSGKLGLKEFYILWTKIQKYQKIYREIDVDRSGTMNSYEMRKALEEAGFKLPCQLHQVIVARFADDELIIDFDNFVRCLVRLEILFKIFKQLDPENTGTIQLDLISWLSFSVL
T1 sequence (Q64537 1-270 partner): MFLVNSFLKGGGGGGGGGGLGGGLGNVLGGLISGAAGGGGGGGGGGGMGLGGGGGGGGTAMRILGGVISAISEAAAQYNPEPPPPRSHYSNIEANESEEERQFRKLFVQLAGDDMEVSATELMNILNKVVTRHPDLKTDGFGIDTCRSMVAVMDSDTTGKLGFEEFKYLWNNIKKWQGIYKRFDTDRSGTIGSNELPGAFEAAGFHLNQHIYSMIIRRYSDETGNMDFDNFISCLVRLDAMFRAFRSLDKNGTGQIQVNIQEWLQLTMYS
Procedure: According to the method previously described (Journal of Biological Chemistry, 259, 12489 (1984)), inhibitory activity of several compounds were determined with m-calpain which was extracted and purified from rat brain by means of the method described in Journal of Biological Chemistry, 259, 3210 (1984). The results are summarized in the following table in which the data for NCO-700 (Arzneimittel Forschung/Drug Research 36, 190 (1986)) and for MDL 28170 (Biochemical and Biophysical Research Communications, 157, 1117 (1988)) are those disclosed in the references.

mouse = conditions: cited from earlier work
calpain I = target: T2, calpain I (Homo sapiens, UniProt P07384); experiment: conversion of 80KDa calpain I to 76KDa form in erythrocyte incubated with calcium; type: cell-based; conditions: human erythrocyte incubated in the presence of calcium
T2 construct: endogenous in cells; host or cells: human erythrocyte
T2 sequence (P07384 1-714): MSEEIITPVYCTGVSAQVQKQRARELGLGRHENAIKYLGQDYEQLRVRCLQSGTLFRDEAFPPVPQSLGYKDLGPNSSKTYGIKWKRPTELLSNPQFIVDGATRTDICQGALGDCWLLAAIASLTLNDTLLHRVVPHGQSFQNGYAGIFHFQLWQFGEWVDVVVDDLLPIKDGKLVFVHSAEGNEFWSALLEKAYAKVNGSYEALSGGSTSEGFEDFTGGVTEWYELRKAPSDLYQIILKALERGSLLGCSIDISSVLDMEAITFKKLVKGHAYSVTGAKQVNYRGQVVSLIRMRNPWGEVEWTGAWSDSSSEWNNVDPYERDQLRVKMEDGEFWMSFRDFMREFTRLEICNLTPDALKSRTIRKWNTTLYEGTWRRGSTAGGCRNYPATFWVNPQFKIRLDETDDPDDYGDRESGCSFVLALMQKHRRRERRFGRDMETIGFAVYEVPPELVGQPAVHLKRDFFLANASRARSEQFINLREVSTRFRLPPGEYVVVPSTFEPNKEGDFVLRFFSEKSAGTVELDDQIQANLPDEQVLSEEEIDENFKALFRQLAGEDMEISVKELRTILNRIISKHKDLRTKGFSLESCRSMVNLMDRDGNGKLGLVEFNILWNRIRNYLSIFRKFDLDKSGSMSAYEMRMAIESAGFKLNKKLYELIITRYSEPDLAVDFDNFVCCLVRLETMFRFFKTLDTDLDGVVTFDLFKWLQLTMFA
T2 sequence (P04632 1-268 partner): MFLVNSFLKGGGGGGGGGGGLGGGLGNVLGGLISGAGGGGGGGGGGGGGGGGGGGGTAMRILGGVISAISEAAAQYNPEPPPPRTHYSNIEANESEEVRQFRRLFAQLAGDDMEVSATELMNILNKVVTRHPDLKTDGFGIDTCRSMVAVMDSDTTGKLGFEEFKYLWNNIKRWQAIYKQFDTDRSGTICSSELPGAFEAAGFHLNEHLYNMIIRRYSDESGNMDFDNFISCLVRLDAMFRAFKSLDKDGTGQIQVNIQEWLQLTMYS
Description: Calpain I is partially purified from post-mortem brain. Fraction containing crude calpain I is subjected to electrophoresis, and reacted with monoclonal antibody to human calpain I (Biochemical Journal, 246, 481 (1987); Biochemical Journal, 261, 1039 (1989)) to show three bands. Molecular weights of these bands are 80KDa, 78KDa, and 76KDa, respectively, and are identical to those in erythrocyte (Biochemical Journal, 246, 482 (1987); Biochemical Journal, 261, 1039 (1989)). When human erythrocyte is incubated in the presence of calcium, the 80KDa band disappears and the 76KDa band appears. This reaction is inhibited by leupeptine which is a calpain inhibitor. Furthermore, there exists a good correlation between the amount of the 76KDa protein and the enzyme activity. […] This transformation from 80KDa to 76KDa in the presence of calcium can also be observed with slice specimens of post-mortem human brain.

calpain = conditions: cited from earlier work

SMILES	pIC50 (m-calpain)	LD₅₀ (mouse; po)	further results
CC(C)CC(NC(=O)[C@H]1O[C@@H]1C(=O)O)C(=O)NCCCCNC(=N)N (some centres unmarked) [E-64]	6.02	> 2000 mg/kg	–
CC(=O)NC(CC(C)C)C(=O)NC(CC(C)C)C(=O)NC(C=O)CCCNC(=N)N (centres unmarked) [leupeptine]	6.44	–	disappearance of 80KDa band and appearance of 76KDa band of calpain I (calpain I): inhibited
NC(N)=NCCCCNC(=O)[C@H](Cc1ccccc1)NC(=O)C1OC1C(=O)O (some centres unmarked) [estatine A]	–	–	LD₅₀ (mouse; ip): > 400 mg/kg
CCCCC(C=O)NC(=O)C(CC(C)C)NC(=O)OCc1ccccc1 (centres unmarked) [carpeptine]	7.34	–	–
CC(C)[C@H](NC(=O)OCc1ccccc1)C(=O)N[C@H](C=O)Cc1ccccc1 [MDL 28170] (Cbz-Val-Phe-aldehyde)	–	–	pKi (calpain; value disclosed in Biochemical and Biophysical Research Communications, 157, 1117 (1988), read-out: calpain inhibitory activity Ki): 8.15
CCOC(=O)[C@H]1O[C@@H]1C(=O)N[C@@H](CC(C)C)C(=O)NCCC(C)C [E-64-d]	–	> 2000 mg/kg	–
CC(C)CCNC(=O)[C@H](CC(C)C)NC(=O)[C@H]1O[C@@H]1C(=O)O [E-64-c]	–	> 2000 mg/kg	–
CCOC(=O)[C@@H]1O[C@H]1C(=O)NC(CC(C)C)C(=O)N1CCN(Cc2ccc(OC)c(OC)c2OC)CC1.CCOC(=O)[C@@H]1O[C@H]1C(=O)NC(CC(C)C)C(=O)N1CCN(Cc2ccc(OC)c(OC)c2OC)CC1.O=S(=O)(O)O (some centres unmarked) [NCO-700]	–	–	pIC50 (calpain; value disclosed in Arzneimittel Forschung/Drug Research 36, 190 (1986), read-out: calpain inhibitory activity IC₅₀): 4.34; LD₅₀ (mouse; iv): 374 mg/kg
